# Data reported in patent US20240208954A1, “OXADIAZOLE COMPOUND, PREPARATION METHOD THEREFOR, PHARMACEUTICAL COMPOSITION AND USE THEREOF” (SHANGHAI INSTITUTE OF MATERIA MEDICA, CHINESE ACADEMY OF …, priority 2020, published 2024).
# pEC50: −log10 of the molar value. Read-outs that look alike come from different tables or passages of the source.
# Tests used:
# Assay type in all cases: cell-based
# S1PR1 = molecular target: T1, S1PR1 (Homo sapiens, UniProt P21453); experiment: Agonistic activity test on S1P receptors, FLIPR, CHO-K1/Ga15/EDG1 cells
# T1 construct: host or cells: CHO-K1 co-expressing Ga15
# T1 sequence (P21453 whole entry): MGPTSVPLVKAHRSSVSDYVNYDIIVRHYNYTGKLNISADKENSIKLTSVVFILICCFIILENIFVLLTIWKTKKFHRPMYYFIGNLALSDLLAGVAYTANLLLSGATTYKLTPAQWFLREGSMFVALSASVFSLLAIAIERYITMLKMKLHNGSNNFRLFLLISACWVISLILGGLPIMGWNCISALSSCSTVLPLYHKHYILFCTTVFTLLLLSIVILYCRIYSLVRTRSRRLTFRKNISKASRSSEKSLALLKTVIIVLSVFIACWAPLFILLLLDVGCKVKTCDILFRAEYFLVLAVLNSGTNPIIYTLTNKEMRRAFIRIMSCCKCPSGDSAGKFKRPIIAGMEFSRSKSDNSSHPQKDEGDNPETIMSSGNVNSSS
# Method: (§1) Instrument: FLIPR™ TETRA (Molecular Device)
# Experimental materials: CHO-K1/Ga15/EDG1 cells constructed by GenScript autonomously.
# (§2) Sample processing: Before the experiment, the working solution with the corresponding concentration was prepared by diluting with GPCR dilution buffer.
# (§3) After 18-20 hours, the cell culture plat was taken out and added with dye working solution, and then the plate was placed in a 37° C./5% CO2 incubator for 1 hour, and finally equilibrated at room temperature for 15 minutes. Positive agonist working solution was added, and RFU values were detected and recorded. […] The positive agonist working fluid was added to the cell culture plate at the 21st second. […] The antagonistic mode detection program, the overall detection time of the instrument was 120 seconds, and positive antagonist working solution was added to the cell culture plate at the 21st second.
# (§4) Data processing: Raw data were obtained via ScreenWorks (version 3.1) and saved as *FMD files on the Kingsray computer network system. Data were collected and analyzed using Excel and GraphPad Prism 6 software programs. For each well, the average fluorescence intensity value from 1 to 20 seconds was used as the baseline, and the maximum fluorescence intensity value from 21 to 120 seconds minus the minimum fluorescence intensity value from 21 to 120 seconds was the relative fluorescence intensity value (ARFU), from which the percentage activation or inhibition can be calculated based on the following equation.
# (§5) % Activation Rate=(ΔRFUCompound-ΔRFUBackground)/(ΔRFUAgonist control-ΔRFUBackground)×100%
# (§6) The data was analyzed using GraphPad Prism 6 with a four-parameter equation to calculate the EC50 and IC50 values. The four-parameter equation was as follows: y=Bottom+(Top-Bottom)/(1+10^((LogEC50/IC50-X)*HillSlope)), wherein X is the Log value of the concentration and Y was the inhibition rate.
# S1PR3 = S1PR3 (Homo sapiens, UniProt Q99500); experiment: Agonistic activity test on S1P receptors, FLIPR
# Sequence of S1PR3 (Q99500 whole entry, species assumed): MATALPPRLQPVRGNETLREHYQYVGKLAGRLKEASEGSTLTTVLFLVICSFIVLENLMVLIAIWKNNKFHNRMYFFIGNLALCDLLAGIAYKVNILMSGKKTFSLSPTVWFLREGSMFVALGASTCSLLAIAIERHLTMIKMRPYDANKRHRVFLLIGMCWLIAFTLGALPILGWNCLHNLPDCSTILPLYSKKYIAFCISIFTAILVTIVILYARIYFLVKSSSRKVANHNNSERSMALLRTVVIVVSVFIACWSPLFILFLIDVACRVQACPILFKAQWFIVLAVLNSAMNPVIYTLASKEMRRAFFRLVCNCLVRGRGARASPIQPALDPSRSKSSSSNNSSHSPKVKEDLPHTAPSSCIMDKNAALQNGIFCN
# Method: as §1, §2, §3, §4, §5, §6
# S1P2 = S1P2 (Homo sapiens, UniProt O95136); experiment: Subtype selectivity study, method of Experimental Example 1
# Sequence of S1P2 (O95136 whole entry, species assumed): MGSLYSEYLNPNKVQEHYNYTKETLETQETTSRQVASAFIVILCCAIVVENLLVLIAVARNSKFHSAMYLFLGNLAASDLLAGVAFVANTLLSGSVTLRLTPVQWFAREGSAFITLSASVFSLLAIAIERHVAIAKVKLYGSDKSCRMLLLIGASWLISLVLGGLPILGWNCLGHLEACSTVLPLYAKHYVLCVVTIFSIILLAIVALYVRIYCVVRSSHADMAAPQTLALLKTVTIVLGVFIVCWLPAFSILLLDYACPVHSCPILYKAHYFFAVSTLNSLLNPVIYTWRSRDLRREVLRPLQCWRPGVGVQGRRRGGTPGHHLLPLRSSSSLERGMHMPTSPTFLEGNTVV
# Method: (§7) Experimental method: CHO-K1/Ga15/EDG1 cells stably expressing EDG1 receptor were cultured in a 10 cm culture dish in a 37° C./5% CO2incubator, and digested when the confluence rate reached 80%-85%. The cells in collected cell suspension were inoculated into 384 microtiter plates at appropriate density, and then placed in a 37° C./5% CO2 incubator and continue to incubate for at least 18 hours before using for experiments. After 18-20 hours, the cell culture plat was taken out and added with dye working solution, and then the plate was placed in a 37° C./5% CO2 incubator for 1 hour, and finally equilibrated at room temperature for 15 minutes. Positive agonist working solution was added, and RFU values were detected and recorded. The 384 microplates, cell plates and tip box with positive agonist working solution were placed into FLIPRTM TETRA and the agonist mode assay program was run with an overall assay time of 120 seconds. The positive agonist working fluid was added to the cell culture plate at the 21st second. 384 microplate, cell plate and gun head box containing the positive antagonist working fluid were put into the FLIPRTM TETRA. The antagonistic mode detection program, the overall detection time of the instrument was 120 seconds, and positive antagonist working solution was added to the cell culture plate at the 21st second. Data processing: Raw data were obtained via ScreenWorks (version 3.1) and saved as *FMD files on the […] computer network system. Data were collected and analyzed using Excel and GraphPad Prism 6 software programs. […] The four-parameter equation was as follows: y=Bottom+(Top-Bottom)/(1+10^((LogEC50/IC50-X)*HillSlope)), wherein X is the Log value of the concentration and Y was the inhibition rate. The S1P receptor selectivity was tested for different subtypes using the method described in Experimental Example 1.
# S1P4 = molecular target: T2, S1P4 (Homo sapiens, UniProt O95977); experiment: as above
# T2 sequence (O95977 1-384): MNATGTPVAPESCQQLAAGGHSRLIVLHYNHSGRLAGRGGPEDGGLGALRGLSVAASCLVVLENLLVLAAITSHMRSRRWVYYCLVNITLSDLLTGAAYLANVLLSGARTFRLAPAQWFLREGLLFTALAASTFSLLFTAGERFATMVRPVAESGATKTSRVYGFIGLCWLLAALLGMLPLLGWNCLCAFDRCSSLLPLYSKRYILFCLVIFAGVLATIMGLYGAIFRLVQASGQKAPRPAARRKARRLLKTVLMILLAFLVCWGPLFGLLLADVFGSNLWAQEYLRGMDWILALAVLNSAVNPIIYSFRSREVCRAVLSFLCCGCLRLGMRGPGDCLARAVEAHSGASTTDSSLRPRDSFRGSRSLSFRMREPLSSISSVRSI
# Method: as §7
# S1P5 = S1P5 (Homo sapiens, UniProt Q9H228); experiment: as above
# Sequence of S1P5 (Q9H228 whole entry, species assumed): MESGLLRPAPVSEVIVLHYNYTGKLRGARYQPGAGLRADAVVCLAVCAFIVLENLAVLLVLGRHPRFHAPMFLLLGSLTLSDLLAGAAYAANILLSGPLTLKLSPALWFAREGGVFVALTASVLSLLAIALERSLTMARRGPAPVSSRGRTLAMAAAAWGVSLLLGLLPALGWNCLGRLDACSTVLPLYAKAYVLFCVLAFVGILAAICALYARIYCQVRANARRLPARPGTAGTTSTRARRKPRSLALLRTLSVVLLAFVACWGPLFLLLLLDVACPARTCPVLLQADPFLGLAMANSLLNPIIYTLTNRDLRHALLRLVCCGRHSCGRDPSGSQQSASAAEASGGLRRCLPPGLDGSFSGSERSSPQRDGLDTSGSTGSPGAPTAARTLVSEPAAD
# Method: as §7
# [1] = FLIPR agonist mode, read-out: S1PR3 EC50
# [2] = CHO-K1/Ga15/EDG1 cells, FLIPR agonist mode, read-out: S1PR1 EC50
# [3] = subtype selectivity study, read-out: S1P3 EC50
smiles,measurement,setting,value
"Cn1c(-c2nc(-c3ccc(CN4CC(C(=O)O)C4)c4ccccc34)no2)cc2ccccc21 [Compound A37, 1-((4-(5-(1-methyl-1H-indole-2-yl)-1,2,4-oxadiazol-3-yl)naphthalen-1-yl)methyl) azetidine-3-carboxylic acid hydrochloric acid]",EC50,"S1PR1; CHO-K1/Ga15/EDG1 cells, FLIPR agonist mode, cells printed in μM, read-out: S1PR1 EC50",> 10 µM
same,pEC50,S1PR3; [1],< 5.00
"O=C(O)C1CN(Cc2ccc(-c3noc(/C=C/c4ccccc4)n3)c3ccccc23)C1 [Compound A38, (E)-1-((4-(5-styryl-1,2,4-oxadiazol-3-yl)naphthalen-1-yl)methyl) azetidine-3-carboxylic acid hydrochloric acid]",pEC50,S1PR1; [2],5.85
same,pEC50,S1PR3; [1],< 5.00
"O=C(O)C1CN(Cc2ccc(-c3noc(C4CCCCC4)n3)c3ccccc23)C1 [Compound A39, 1-((4-(5-cyclohexyl-1,2,4-oxadiazol-3-yl)naphthalen-1-yl)methyl) azetidine-3-carboxylic acid hydrochloric acid]",pEC50,S1PR1; [2],6.08
same,pEC50,S1PR3; [1],< 5.00
CC(C)Oc1ccc(-c2nc(-c3cccc4c3CC[C@@H]4NCCO)no2)cc1C#N [Ozanimod],pEC50,S1PR3; [1],< 5.00
same,pEC50,S1PR3; [3],5.58
same,pEC50,S1P2,< 5.00
same,pEC50,S1P4,< 5.00
same,pEC50,S1P5,7.97
"CCc1cc(/C(C)=N/OCc2ccc(C3CCCCC3)c(C(F)(F)F)c2)ccc1CN1CC(C(=O)O)C1 [Siponmod, reference compound]",pEC50,S1PR1; [2],6.26
same,pEC50,"S1PR1; subtype selectivity study, read-out: S1P1 EC50",6.26
same,pEC50,S1PR3; [1],< 5.00
same,pEC50,S1PR3; [3],< 6.00
same,pEC50,S1P2,< 5.00
same,pEC50,S1P4,6.12
same,pEC50,S1P5,9.01
